Experiments:
Assay type in all cases: biochemical
PC7 = target: T1, PC7 (Homo sapiens, UniProt Q16549); experiment: Enzyme inhibition assay, fluorogenic substrate, PC7
T1 sequence (Q16549 142-785): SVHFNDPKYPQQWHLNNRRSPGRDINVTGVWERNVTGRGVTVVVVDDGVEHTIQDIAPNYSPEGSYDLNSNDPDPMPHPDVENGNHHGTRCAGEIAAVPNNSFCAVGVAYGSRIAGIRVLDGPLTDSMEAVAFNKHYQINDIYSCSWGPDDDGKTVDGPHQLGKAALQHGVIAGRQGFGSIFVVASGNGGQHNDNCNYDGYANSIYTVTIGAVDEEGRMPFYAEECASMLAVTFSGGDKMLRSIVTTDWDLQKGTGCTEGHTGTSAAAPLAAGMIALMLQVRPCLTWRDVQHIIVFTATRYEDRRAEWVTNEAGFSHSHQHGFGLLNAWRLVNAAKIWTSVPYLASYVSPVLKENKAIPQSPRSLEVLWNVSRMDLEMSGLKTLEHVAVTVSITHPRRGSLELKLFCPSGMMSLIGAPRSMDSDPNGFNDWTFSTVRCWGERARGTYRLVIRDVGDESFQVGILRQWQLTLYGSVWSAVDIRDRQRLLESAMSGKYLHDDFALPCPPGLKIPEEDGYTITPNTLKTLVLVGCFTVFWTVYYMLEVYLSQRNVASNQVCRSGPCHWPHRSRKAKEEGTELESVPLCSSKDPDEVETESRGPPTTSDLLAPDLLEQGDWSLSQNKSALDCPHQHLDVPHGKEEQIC
Procedure: (§1) Enzyme inhibition assays for furin (FIG. 5D) were performed in 100 mM Hepes pH 7.5, 1 mM CaCl2, 1 mM β-mercaptoethanol, 0.5 μg/μL BSA. Assays for PC2 (FIG. 5E) were performed in 20 mM Bis-Tris pH 5,7, 1 mM CaCl2, 0.1% Brij-30. Assays for PC1/3, PC4, PACE4, PC5/6 and PC7 (FIGS. 5F, G, A, B and C respectively) were performed in 20 mM Bis-Tis pH 6.5, 1 mM CaCl2. All assays were performed with the substrate pyroGlu-Arg-[…]-Lys-Arg-methyl-coumaryl-7-amide (SEQ ID NO: 33) (PyrRTKR-MCA (SEQ ID NO: 34)) (Bachem, CA) at 100 μM for furin, PC1/3, PC4, PACE4 and PC5/6, 200 μM for PC2 and 250 μM for PC7. Assays were carried out at 37° C. for 30-60 min and real-time fluorescence was measured with an excitation wavelength of 370 nm and an emission wavelength of 460 nm using a Gemini XS™ 96-well spectrofluorometer and SoftMaxPro4™ software (Molecular Devices, CA). Inhibitory peptides were added to the enzymes at decreasing concentrations from 100 μM to 50 nM and incubated 5 minutes prior to the addition of substrate.

furin = furin (Homo sapiens, UniProt P09958); experiment: Enzyme inhibition assay, fluorogenic substrate, furin
Chain of furin (P09958 108-794, species assumed): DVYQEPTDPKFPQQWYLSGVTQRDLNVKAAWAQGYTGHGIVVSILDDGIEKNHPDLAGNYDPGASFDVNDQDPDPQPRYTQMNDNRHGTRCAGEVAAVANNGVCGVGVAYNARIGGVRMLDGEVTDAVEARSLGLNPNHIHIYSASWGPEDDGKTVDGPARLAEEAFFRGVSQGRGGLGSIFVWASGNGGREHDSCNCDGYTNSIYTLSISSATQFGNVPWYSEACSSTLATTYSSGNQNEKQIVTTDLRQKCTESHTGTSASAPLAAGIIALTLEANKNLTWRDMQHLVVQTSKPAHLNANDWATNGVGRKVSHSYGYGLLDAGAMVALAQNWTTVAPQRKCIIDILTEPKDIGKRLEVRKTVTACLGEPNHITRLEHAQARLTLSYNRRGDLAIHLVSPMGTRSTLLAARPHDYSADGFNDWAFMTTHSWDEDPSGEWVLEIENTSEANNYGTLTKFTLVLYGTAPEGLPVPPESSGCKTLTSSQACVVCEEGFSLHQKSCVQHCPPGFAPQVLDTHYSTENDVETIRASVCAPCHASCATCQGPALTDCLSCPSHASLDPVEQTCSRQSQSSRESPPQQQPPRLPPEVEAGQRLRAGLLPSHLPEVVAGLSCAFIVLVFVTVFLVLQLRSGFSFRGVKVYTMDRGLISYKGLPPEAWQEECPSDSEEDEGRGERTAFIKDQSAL
Procedure: as §1

PC4 = target: T2, PC4 (Homo sapiens, UniProt Q6UW60); experiment: Enzyme inhibition assay, fluorogenic substrate, PC4
T2 sequence (Q6UW60 114-755): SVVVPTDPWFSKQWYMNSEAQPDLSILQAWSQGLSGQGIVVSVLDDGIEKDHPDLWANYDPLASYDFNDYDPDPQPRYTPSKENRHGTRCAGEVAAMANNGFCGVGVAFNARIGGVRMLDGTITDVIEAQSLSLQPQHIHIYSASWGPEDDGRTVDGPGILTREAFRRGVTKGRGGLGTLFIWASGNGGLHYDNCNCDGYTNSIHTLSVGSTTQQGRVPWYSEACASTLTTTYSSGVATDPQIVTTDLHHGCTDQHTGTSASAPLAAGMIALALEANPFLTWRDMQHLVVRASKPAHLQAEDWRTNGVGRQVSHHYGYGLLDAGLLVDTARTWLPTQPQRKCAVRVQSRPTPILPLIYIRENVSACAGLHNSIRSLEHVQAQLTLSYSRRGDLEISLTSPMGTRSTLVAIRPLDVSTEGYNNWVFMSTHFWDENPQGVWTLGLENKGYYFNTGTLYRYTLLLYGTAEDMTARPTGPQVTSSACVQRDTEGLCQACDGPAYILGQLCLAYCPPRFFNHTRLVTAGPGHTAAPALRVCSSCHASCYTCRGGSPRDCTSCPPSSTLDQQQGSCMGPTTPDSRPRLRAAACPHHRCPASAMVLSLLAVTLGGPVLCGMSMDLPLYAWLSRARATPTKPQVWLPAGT
Procedure: as §1

PC5/6 = PC5/6 (Homo sapiens, UniProt Q92824); experiment: Enzyme inhibition assay, fluorogenic substrate, PC5/6
Chain of PC5/6 (Q92824 115-1860): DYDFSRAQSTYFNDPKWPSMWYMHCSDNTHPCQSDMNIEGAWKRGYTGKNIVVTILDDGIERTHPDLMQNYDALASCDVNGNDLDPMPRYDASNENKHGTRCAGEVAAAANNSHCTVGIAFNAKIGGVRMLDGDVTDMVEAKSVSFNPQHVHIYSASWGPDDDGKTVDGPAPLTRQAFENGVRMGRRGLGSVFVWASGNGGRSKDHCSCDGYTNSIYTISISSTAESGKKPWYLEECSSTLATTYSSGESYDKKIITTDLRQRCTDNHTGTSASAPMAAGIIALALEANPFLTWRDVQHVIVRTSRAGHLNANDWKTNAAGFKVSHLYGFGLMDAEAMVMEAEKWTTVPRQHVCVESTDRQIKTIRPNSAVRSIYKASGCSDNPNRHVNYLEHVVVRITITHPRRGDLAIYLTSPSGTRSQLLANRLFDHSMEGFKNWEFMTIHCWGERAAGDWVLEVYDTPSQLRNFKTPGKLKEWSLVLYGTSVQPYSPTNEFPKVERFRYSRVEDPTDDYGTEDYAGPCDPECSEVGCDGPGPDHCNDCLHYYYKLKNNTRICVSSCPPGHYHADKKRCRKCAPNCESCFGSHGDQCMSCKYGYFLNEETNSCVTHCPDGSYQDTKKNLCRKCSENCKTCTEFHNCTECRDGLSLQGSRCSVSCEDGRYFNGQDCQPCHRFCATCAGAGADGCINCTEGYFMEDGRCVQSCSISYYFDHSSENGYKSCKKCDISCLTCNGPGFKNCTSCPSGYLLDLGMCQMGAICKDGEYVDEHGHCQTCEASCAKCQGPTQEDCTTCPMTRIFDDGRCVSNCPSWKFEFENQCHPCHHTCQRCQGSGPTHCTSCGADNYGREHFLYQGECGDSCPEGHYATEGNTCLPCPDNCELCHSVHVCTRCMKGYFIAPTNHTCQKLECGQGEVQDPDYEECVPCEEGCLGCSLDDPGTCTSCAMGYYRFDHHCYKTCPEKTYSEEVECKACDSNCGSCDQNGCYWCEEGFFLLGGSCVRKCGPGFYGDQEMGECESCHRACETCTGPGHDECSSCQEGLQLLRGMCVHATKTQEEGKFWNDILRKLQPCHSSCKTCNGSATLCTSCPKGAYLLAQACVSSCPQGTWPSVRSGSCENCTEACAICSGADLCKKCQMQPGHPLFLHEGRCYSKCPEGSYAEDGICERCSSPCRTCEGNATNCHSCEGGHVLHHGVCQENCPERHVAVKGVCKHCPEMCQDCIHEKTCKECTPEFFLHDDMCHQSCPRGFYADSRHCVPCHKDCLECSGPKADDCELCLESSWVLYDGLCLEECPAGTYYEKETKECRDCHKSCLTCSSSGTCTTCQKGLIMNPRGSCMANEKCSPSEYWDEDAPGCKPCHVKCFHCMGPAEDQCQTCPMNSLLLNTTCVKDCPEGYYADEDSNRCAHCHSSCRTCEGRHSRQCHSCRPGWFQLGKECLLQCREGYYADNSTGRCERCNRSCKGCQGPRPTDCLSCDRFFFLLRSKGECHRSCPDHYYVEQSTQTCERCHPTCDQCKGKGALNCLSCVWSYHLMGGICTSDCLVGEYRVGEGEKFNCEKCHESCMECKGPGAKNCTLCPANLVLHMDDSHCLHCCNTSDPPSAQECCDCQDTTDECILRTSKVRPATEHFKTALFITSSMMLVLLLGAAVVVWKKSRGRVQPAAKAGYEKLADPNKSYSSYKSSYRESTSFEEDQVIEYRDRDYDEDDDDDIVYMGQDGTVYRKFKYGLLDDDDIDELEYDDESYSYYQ
Procedure: as §1

RVKR [RVKR—NH2, RVKR-NH2]
poor micromolar inhibitor: inhibition potency on PC7, in words (PC7) | inhibition potency on furin, in words (furin) | inhibition potency on PC4, in words (PC4) | inhibition potency on PC5/6, in words (PC5/6)

Reference: patent publication US8658591B2, “Multi-LEU peptides and analogues thereof as selective PACE4 inhibitors and effective antiproliferative agents” (priority 2008, dated 2014)
